Earlier results as cited in patent US20230355730A1, “METHODS FOR TREATING AUTOIMMUNE DISEASE USING BIOCOMPATIBLE BIOABSORBABLE NANOSPHERES” (UTI Limited Partnership, priority 2010, published 2023).

System: IGRP206-214-reactive CD8^+ T-cells
Details: cited from earlier work; for T1D protection: chronic treatment, moderate doses (NRP-A7), high doses (NRP-I4, NRP-V7, IGRP206-214)

Row | Sequence | T1D protection | avidity maturation of the IGRP206-214-reactive CD8^+ subset (pre-diabetic NOD mice, soluble peptide)
1 | KYNIANVFL (SEQ ID NO:7) [NRP-I4] | afforded T1D protection | –
2 | KYNKANVFL (SEQ ID NO:8) [NRP-V7] | only afforded marginal protection | –
3 | KYNKANAFL (SEQ ID NO:6) [NRP-A7] | afforded T1D protection | blunted avidity maturation
4 | VYLKTNVFL (SEQ ID NO:4) [IGRP206-214, natural ligand] | only afforded marginal protection | –
